Reference: the Deep4Chem optical property database
Several values for one entry are separate records, joined by “and”; a condition that tells them apart may be missing. Identical values can stand only once. Each block holds one compound with its values, some of them ahead of it.

Assay: solvent given as SMILES
[1] = in c1ccc2c(c1)c1ccccc1n2-c1ccc(-c2ccc(-n3c4ccccc4c4ccccc43)cc2)cc1
[2] = in c1cc(-c2cccc(-n3c4ccccc4c4ccccc43)c2)cc(-n2c3ccccc3c3ccccc32)c1

SMILES: CCC1=C(C)C2=Cc3cc(I)c(I)n3[B-](F)(F)[N+]2=C1C
fluorescence lifetime (in C1CCCCC1): 1.04 ns
fluorescence lifetime (in CC(C)=O): 0.753 ns
fluorescence lifetime (in CCO): 0.943 ns
fluorescence lifetime (in CCOC(C)=O): 0.836 ns
fluorescence lifetime (in CO): 0.848 ns
fluorescence lifetime (in OCC(F)(F)F): 0.676 ns

fluorescence lifetime (in O): 4.4 ns
SMILES: CC[n+]1nc2cc3c4c(c2c2cc(F)ccc21)CCCN4CCC3

fluorescence lifetime (in ClC(Cl)Cl): 6.55 ns
SMILES: COc1ccc(N(c2ccc(OC)cc2)c2ccc(-c3ccc(-c4ccc(-c5cccs5)c5nsnc45)s3)cc2)cc1

fluorescence lifetime (in C1CCCCC1): 2.4 ns
fluorescence lifetime (in c1ccccc1): 2.5 ns
SMILES: CN(C)c1ccc2nc(-c3ccc(C(=O)O)cc3)sc2c1

fluorescence lifetime (in ClCCl): 0.47 ns
SMILES: C[Si]1(C)c2ccc(-c3ccc(-c4cccs4)s3)cc2C=Cc2cc(-c3ccc(-c4cccs4)s3)ccc21

SMILES: c1ccc([B-]2(c3ccccc3)Oc3ccc4ccccc4c3-c3c4ccccc4cc[n+]32)cc1
fluorescence lifetime (in Cc1ccccc1): 9.47 ns

SMILES: c1ccc(-c2cc(-c3ccc(-c4nc(-c5ccccn5)c(-c5ccccn5)[nH]4)cc3)cc(-c3ccccn3)n2)nc1
fluorescence lifetime (in C1CCOC1): 1.46 ns
fluorescence lifetime (in CC#N): 1.44 ns
fluorescence lifetime (in CC(C)=O): 1.09 ns
fluorescence lifetime (in CCCCCC): 0.065 ns
fluorescence lifetime (in CCO): 2.04 ns
fluorescence lifetime (in CCOC(C)=O): 1.18 ns
fluorescence lifetime (in CN(C)C=O): 1.91 ns
fluorescence lifetime (in CO): 1.41 ns
fluorescence lifetime (in CS(C)=O): 2.04 ns
fluorescence lifetime (in ClC(Cl)Cl): 1.19 ns
fluorescence lifetime (in ClCCl): 3.43 ns
fluorescence lifetime (in O): 2.39 ns

fluorescence lifetime (in C1CCOC1): 1.1 ns
fluorescence lifetime (in C1COCCO1): 0.9 ns
fluorescence lifetime (in CC#N): 0.8 ns
fluorescence lifetime (in CCCCCO): 0.7 ns
fluorescence lifetime (in CCCCO): 0.8 ns
fluorescence lifetime (in CCCO): 0.7 ns
fluorescence lifetime (in CCO): 0.6 ns
fluorescence lifetime (in CO): 0.8 ns
fluorescence lifetime (in COCCOC): 1.5 ns
fluorescence lifetime (in ClC(Cl)Cl): 0.6 ns
fluorescence lifetime (in ClCCl): 0.9 ns
fluorescence lifetime (in OCCO): 0.8 ns
SMILES: O=C(O)c1c2ccccc2nc2ccccc12

fluorescence lifetime (in ClC(Cl)Cl): 0.56 ns
SMILES: CCCCCCn1c2cc(/C=C(\C#N)c3cccs3)ccc2c2ccc(/C=C(\C#N)c3cccs3)cc21

fluorescence lifetime (in C1CCCCC1): 0.75 ns
SMILES: CN(C)c1ccc(/C=C/C=C/C=C/c2ccc(B(O)O)cc2)cc1

fluorescence lifetime (in CCCCCC): 3.1 ns
SMILES: CC(C)(C)c1cc2ccc3cc(C(C)(C)C)cc4c(N(c5ccccc5)c5ccccc5)cc(c1)c2c34

fluorescence lifetime (in ClCCl): 4.68 ns
SMILES: N#CC(C#N)=Cc1ccc2c(c1)c1ccccc1n2-c1cc2ccccc2c2ccccc12

SMILES: Nc1ccc2c(C(F)(F)F)cc(=O)oc2c1
fluorescence lifetime (in C1CCC2CCCCC2C1): 1.9 ns
fluorescence lifetime (in C1CCCCC1): 1.2 ns
fluorescence lifetime (in C1COCCO1): 4.65 ns
fluorescence lifetime (in CC1CCCCC1): 1.22 ns
fluorescence lifetime (in CC#N): 5.2 ns and 5.13 ns
fluorescence lifetime (in CC(C)=O): 4.97 ns
fluorescence lifetime (in CC(C)O): 5.28 ns
fluorescence lifetime (in CCC(C)CC): 0.842 ns
fluorescence lifetime (in CCCC(C)C): 0.406 ns
fluorescence lifetime (in CCCCCC): 0.854 ns
fluorescence lifetime (in CCCCCCCCO): 5.4 ns
fluorescence lifetime (in CCCCCCO): 5.29 ns
fluorescence lifetime (in CCCCO): 5.24 ns
fluorescence lifetime (in CCO): 5.38 ns
fluorescence lifetime (in CCOC(C)=O): 4.67 ns
fluorescence lifetime (in CN(C)C=O): 5.22 ns
fluorescence lifetime (in CO): 5.31 ns
fluorescence lifetime (in CS(C)=O): 5 ns

fluorescence lifetime (in ClCCl): 1.8 ns
SMILES: CCCCC(CC)COc1ccc2nc(-c3ccc(-c4c(C)noc4C)s3)sc2c1 (stereo not given)

SMILES: F[B-]1(F)n2c(Nc3cccc4cccnc34)ccc2C(c2ccccc2)=C2C=CC(Cl)=[N+]21
fluorescence lifetime (in C1CCCCC1): 3.21 ns
fluorescence lifetime (in Cc1ccccc1): 0.82 ns

fluorescence lifetime (in CS(C)=O): 8.85 ns
SMILES: Cn1c2ccccc2c(=O)c2ccccc21

fluorescence lifetime (in ClCCl): 5.3 ns
SMILES: COc1ccc(-c2cc3c(s2)c(C(=O)c2ccccc2)cc(=O)n3Cc2ccccc2)cc1

fluorescence lifetime (in ClCCl): 16.9 ns
SMILES: CCN(CC)c1ccc2c(c1)oc(=O)c1cc3cnn(-c4ccccc4)c3nc12

fluorescence lifetime (in ClCCl): 0.416 ns
SMILES: N#Cc1ccc(/C2=C3N=C(C(c4ccccc4)=C/3c3ccccc3)/C(c3ccc(C#N)cc3)=c3\[nH]/c(c(-c4ccccc4)c3-c3ccccc3)=C(/c3ccc(C#N)cc3)C3=N/C(=C(/c4ccc(C#N)cc4)c4[nH]c2c(-c2ccccc2)c4-c2ccccc2)C(c2ccccc2)=C3c2ccccc2)cc1

fluorescence lifetime (in ClCCl): 2.06 ns
SMILES: COC(=O)c1cc(=O)n(Cc2ccccc2)c2cc(-c3ccc(OC)cc3)sc12

SMILES: CC(C)(C)c1ccc2c(c1)c1cc(C(C)(C)C)ccc1n2-c1ccc(-c2ccc3c(c2)C(=O)c2ccc(-c4ccc(-n5c6ccc(C(C)(C)C)cc6c6cc(C(C)(C)C)ccc65)cc4)cc2C3=O)cc1
fluorescence lifetime (in Cc1ccccc1): 12.6 ns
fluorescence lifetime [1]: 33 ns

fluorescence lifetime (in C1CCOC1): 6.2 ns
SMILES: Clc1cnc2nn3ccccc3c2n1

SMILES: CCCCC1=Cc2c3ccc4cccc5ccc(c6cc(-c7ccccc7)n(c26)P1(=O)c1ccccc1)c3c45 (stereo not given)
fluorescence lifetime (in C1CCCCC1): 1.9 ns
fluorescence lifetime (in C1CCOC1): 1.7 ns
fluorescence lifetime (in C1COCCO1): 1.8 ns
fluorescence lifetime (in CC#N): 1.8 ns
fluorescence lifetime (in CC(C)=O): 1.8 ns
fluorescence lifetime (in CO): 1.7 ns
fluorescence lifetime (in Cc1ccccc1): 1.7 ns
fluorescence lifetime (in ClC(Cl)Cl): 1.6 ns
fluorescence lifetime (in ClCCl): 1.6 ns

fluorescence lifetime (in C1CCOC1): 4.2 ns
SMILES: CCCCn1c2ccc(-c3cccs3)cc2c2c1c1c3ccc(-c4cccs4)cc3n(CCCC)c1c1c3ccc(-c4cccs4)cc3n(CCCC)c21

fluorescence lifetime (in C1CCCCC1): 4.1 ns
fluorescence lifetime (in CCOC(C)=O): 4.22 ns
fluorescence lifetime (in CO): 4.14 ns
SMILES: COc1ccc(C2=C3C=c4c(oc5ccccc45)=[N+]3[B-](F)(F)n3c2cc2c4ccccc4oc23)cc1

fluorescence lifetime (in ClCCl): 0.69 ns
SMILES: CC(C)(C)NC(=O)c1ccc(-c2cc3ccccc3s2)c2ccc3c4ccccc4c4ccccc4c3c12

fluorescence lifetime (in CCO): 4.72 ns
fluorescence lifetime (in CN(C)C=O): 5.08 ns
fluorescence lifetime (in CS(C)=O): 5.3 ns
SMILES: c1ccc(-c2oc(-c3ccccc3)c3ccccc23)cc1

fluorescence lifetime (in C1CCCCC1): 2.9 ns
fluorescence lifetime (in CCOC(C)=O): 0.92 ns
SMILES: CC1=[N+]2C(=C(c3ccc(C(=O)c4ccccc4)cc3)c3ccc(C)n3[B-]2(F)F)C=C1c1cc2n(c1)[B-](F)(F)[N+]1=CC=CC1=C2c1c(C)cc(C)cc1C

fluorescence lifetime (in ClCCl): 11.4 ns
SMILES: CCN(CC)c1ccc2cc(-c3nc4c5cccc6ccc7cccc(c7c65)c4n3-c3ccc(C(C)(C)C)cc3)c(=O)oc2c1

fluorescence lifetime (in C1CCOC1): 2.57 ns
SMILES: CCn1c2ccccc2c2cc(-c3cc(-c4ccc5c(c4)c4ccccc4n5CC)nc(C#N)n3)ccc21

fluorescence lifetime (in ClCCl): 2.1 ns
SMILES: C[Si]1(C)c2cc(-c3ccc(N(c4ccccc4)c4ccccc4)cc3)ccc2C=Cc2ccc(-c3ccc(N(c4ccccc4)c4ccccc4)cc3)cc21

SMILES: CC1(C)c2ccccc2N(c2ccc(-c3nnc(-c4ccccc4)o3)cc2)c2ccccc21
fluorescence lifetime (in Cc1ccccc1): 7 ns
fluorescence lifetime (in c1ccc(-n2c(-c3c(-n4c5ccccc5c5ccccc54)cccc3-n3c4ccccc4c4ccccc43)nc3ccccc32)cc1): 7.8 ns

fluorescence lifetime (in CC#N): 12.2 ns
fluorescence lifetime (in ClCCl): 4.6 ns
SMILES: Cc1cc(-c2ccccc2C)cc(C)[o+]1

fluorescence lifetime (in ClCCl): 6 ns
SMILES: CC(C)(C)c1ccc2c(c1)sc1[n+]2[B-](F)(F)n2c(c3cccc4cccc2c43)=C1C#N

fluorescence lifetime (in ClCCl): 1.23 ns
SMILES: c1ccc2c(c1)OP1(=NP3(=NP(Oc4ccc5ccc6cccc7ccc4c5c67)(Oc4ccc5ccc6cccc7ccc4c5c67)=N1)Oc1ccccc1-c1ccccc1O3)Oc1ccccc1-2

SMILES: Cn1cc(-c2nc3ccccc3nc2/C=C/N2CCCC2)c2ccccc21
fluorescence lifetime (in C1CCCCC1): 1.27 ns
fluorescence lifetime (in C1CCOC1): 5.12 ns
fluorescence lifetime (in CC#N): 6.75 ns
fluorescence lifetime (in CC(C)=O): 6.42 ns
fluorescence lifetime (in CCO): 0.75 ns
fluorescence lifetime (in CO): 0.19 ns
fluorescence lifetime (in CS(C)=O): 7.19 ns
fluorescence lifetime (in Cc1ccccc1): 3.62 ns
fluorescence lifetime (in ClCCl): 7.01 ns

fluorescence lifetime (in ClCCl): 11.3 ns
SMILES: O=P1(c2ccccc2)c2ccccc2-c2sc3ccccc3c21 (stereo not given)

SMILES: COC(=O)/C(C#N)=c1\s/c(=c2/s/c(=C(/C#N)C(=O)OC)c3cc(-c4ccc5c(c4)C(C)(C)c4ccccc4-5)sc23)c2sc(-c3ccc4c(c3)C(C)(C)c3ccccc3-4)cc12
fluorescence lifetime (in Cc1ccccc1): 4.38 ns

fluorescence lifetime (in ClC(Cl)Cl): 6.8 ns
SMILES: COc1ccc2c(-c3nc(-c4cccc(Br)c4)no3)cc(=O)oc2c1

fluorescence lifetime (in C1CCCCC1): 3.3 ns
fluorescence lifetime (in c1ccccc1): 0.79 ns
SMILES: CN(C)c1ccc2c(c1)C(=O)c1ccccc1-2

SMILES: CCCCC(CC)CN1C(=O)C2=C(c3ccc(-c4ccc(C5=C6C(C)=CC(C)=[N+]6[B-](F)(F)n6c(C)cc(C)c65)cc4)s3)N(CC(CC)CCCC)C(=O)C2=C1c1ccc(-c2ccc(C3=C4C(C)=CC(C)=[N+]4[B-](F)(F)n4c(C)cc(C)c43)cc2)s1 (stereo not given)
fluorescence lifetime (in Cc1ccccc1): 3.36 ns

fluorescence lifetime (in CN(C)C=O): 4.1 ns
SMILES: CCC1=C(C)C2=C(c3cc(C(=O)Cl)cc(C4=C5C(C)=C(CC)C(C)=[N+]5[B-](F)(F)n5c(C)c(CC)c(C)c54)c3)c3c(C)c(CC)c(C)n3[B-](F)(F)[N+]2=C1C

fluorescence lifetime [2]: 15 ns
SMILES: CC(C)c1cc(C(C)C)c(B2c3cc(-n4c5ccc(C(C)(C)C)cc5c5cc(C(C)(C)C)ccc54)ccc3N(c3ccccc3)c3ccc(-n4c5ccc(C(C)(C)C)cc5c5cc(C(C)(C)C)ccc54)cc32)c(C(C)C)c1

fluorescence lifetime [2]: 26 ns
SMILES: O=C(c1ccc(C(=O)c2ccc(N3c4ccccc4Oc4ccccc43)cc2)cc1)c1ccc(N2c3ccccc3Oc3ccccc32)cc1

SMILES: COc1ccc(/C=C/C2=CC(/C=C/c3ccc(OC)cc3)=[O+][B-](OC(C)=O)(OC(C)=O)O2)cc1
fluorescence lifetime (in C1CCOC1): 2.38 ns
fluorescence lifetime (in CC#N): 2.09 ns
fluorescence lifetime (in CC(C)=O): 2.29 ns
fluorescence lifetime (in CS(C)=O): 2.26 ns
fluorescence lifetime (in Cc1ccccc1): 2.45 ns
fluorescence lifetime (in ClC(Cl)Cl): 2.52 ns
fluorescence lifetime (in ClCCl): 2.63 ns

SMILES: O=C(c1ccc(N2c3ccccc3Sc3ccccc32)cc1)c1ccc2sc3ccccc3c2c1
fluorescence lifetime [1]: 37.4 ns

SMILES: CC(C)(C)c1ccc2c(c1)c1cc(C(C)(C)C)ccc1n2-c1cc[n+]2c(c1)-c1ccccc1O[B-]2(F)F
fluorescence lifetime (in O=P(c1ccccc1)(c1ccccc1)c1ccccc1Oc1ccccc1P(=O)(c1ccccc1)c1ccccc1): 6.3 ns

SMILES: CC1(C)c2ccccc2N(c2ccc(-c3ncccn3)cc2)c2ccccc21
fluorescence lifetime (in O=P(c1ccccc1)(c1ccccc1)c1ccc2oc3ccc(P(=O)(c4ccccc4)c4ccccc4)cc3c2c1): 11 ns

fluorescence lifetime (in C1CCOC1): 1.09 ns
fluorescence lifetime (in CCCCCC): 8.42 ns
fluorescence lifetime (in c1ccccc1): 8.55 ns
SMILES: O=C1OC(=O)c2ccc(N(c3ccccc3)c3ccc4ccccc4c3)c3cccc1c23

SMILES: CC1(C)c2ccccc2N(c2ccc(-c3nc([C@]45CC6CC(C[C@@H](C6)C4)C5)nc([C@]45C[C@H]6C[C@@H](C[C@H](C6)C4)C5)n3)cc2)c2ccccc21
fluorescence lifetime (in CC(C)(C)c1ccc(-n2c3ccc([Si](c4ccccc4)(c4ccccc4)c4ccccc4)cc3c3cc([Si](c4ccccc4)(c4ccccc4)c4ccccc4)ccc32)cc1): 14.4 ns

fluorescence lifetime (in C1CCCCC1): 33 ns
SMILES: Nc1ccc2cc3ccccc3cc2c1
